One test deals with T1, Link_TSG6 (Homo sapiens, UniProt P98066).
T1 construct: made in house
The test can be described thus: ITC of HA oligosaccharides binding to Link_TSG6. Particulars: Table 1, ITC, 25 °C, 5 mM MES pH 6.0, mean ± SEM; for N: 0.029 mM Link_TSG6, 0.29 mM oligosaccharide, four titrations. Here is the method:
ITC experiments were performed using a MicroCal PEAQ-ITC instrument (Malvern Instruments). Oligosaccharide stock solutions were prepared at 0.29 mM (in 5 mM MES, pH 6.0) and injected (18 × 2 μl with 120 s spacing between injections) into the cell containing ∼200 μl Link_TSG6 (0.029 mM) in matched buffer at 25 °C. Data were fit to a one site binding model, after subtracting the heats from the last three injections to account for heat of dilution of the oligosaccharide into buffer. Each oligosaccharide was analyzed in four independently performed ITC experiments.

The next test deals with T2, recombinant human TSG-6 (Homo sapiens, UniProt P19827+P98066).
T2 construct: TSG-6–mediated HC-transfer assays (using full-length TSG6); purchased R&D Systems
T2 sequence (P98066 18-277): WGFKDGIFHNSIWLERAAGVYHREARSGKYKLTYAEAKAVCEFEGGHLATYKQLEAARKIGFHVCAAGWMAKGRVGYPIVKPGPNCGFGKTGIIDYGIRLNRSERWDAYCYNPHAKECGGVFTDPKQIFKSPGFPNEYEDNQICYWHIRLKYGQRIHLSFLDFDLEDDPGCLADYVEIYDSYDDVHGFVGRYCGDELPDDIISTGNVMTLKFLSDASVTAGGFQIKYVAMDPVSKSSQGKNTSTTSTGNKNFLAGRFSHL
T2 sequence (P19827 35-672 limits assumed): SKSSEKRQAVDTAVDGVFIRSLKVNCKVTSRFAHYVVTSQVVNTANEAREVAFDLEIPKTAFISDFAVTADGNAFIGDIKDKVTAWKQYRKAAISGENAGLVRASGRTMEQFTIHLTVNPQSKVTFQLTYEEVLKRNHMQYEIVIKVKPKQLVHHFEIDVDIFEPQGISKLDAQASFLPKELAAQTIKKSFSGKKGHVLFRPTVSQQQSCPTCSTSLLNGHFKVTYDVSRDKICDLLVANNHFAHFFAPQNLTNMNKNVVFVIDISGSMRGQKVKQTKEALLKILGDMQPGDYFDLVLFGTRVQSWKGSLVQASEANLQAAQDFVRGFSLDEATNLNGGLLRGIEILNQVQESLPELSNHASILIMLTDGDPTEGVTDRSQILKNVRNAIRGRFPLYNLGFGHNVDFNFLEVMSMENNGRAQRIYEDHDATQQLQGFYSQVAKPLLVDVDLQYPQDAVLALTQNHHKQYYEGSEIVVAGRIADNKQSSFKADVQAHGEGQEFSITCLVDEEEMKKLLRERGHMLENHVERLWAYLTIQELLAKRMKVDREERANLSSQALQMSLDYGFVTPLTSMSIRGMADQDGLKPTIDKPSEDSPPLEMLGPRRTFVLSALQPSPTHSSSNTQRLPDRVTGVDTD
The test can be described thus: In vitro HC-transfer assay (IαI + rhTSG-6, Western blot anti-HC1). It counts as biochemical. Conditions: 15 μM HA, 1.8 μM IαI, rhTSG-6, 2 h at 37 °C; for Substrate for HC transfer: Table 6; for Activity as substrate for HC transfer (text): Western blot anti-HC1. Here is the method:
Covalent transfer of HC from IαI onto unmodified and chemically modified HA oligosaccharides was analyzed using the assay described previously ([26]). All reactions were performed using a buffer of 20 mM Hepes, pH 7.5, 150 mM NaCl, and 5 mM MgCl2. In a “standard” assay, HA oligosaccharides were at 15 μM, human IαI ([97]) 1.8 at μM (based on a molecular weight of 180 kDa), and recombinant human TSG-6 (R&D Systems) at 2.8 μM (based on a molecular weight of 35 kDa). Reaction mixtures were analyzed by SDS-PAGE using 4 to 12% bis-tris polyacrylamide gels (Invitrogen). For Western blot analysis, proteins were transferred onto nitrocellulose membrane (GE Healthcare) and incubated with antisera against HC1 (CP7, 1:10,000; ([98])). Bound primary antibody was detected using goat-anti-rabbit IgG conjugated to IR dye (LI-COR Biosciences) and blots imaged using an Odyssey Clx near-IR fluorescence imaging system (LICOR Biosciences).
(In general: In western blotting, separated proteins are transferred to a membrane and probed.)

Entries after “also recorded” stand apart in the source; their conditions may differ.

T1 sequence (P98066 36-129 limits assumed): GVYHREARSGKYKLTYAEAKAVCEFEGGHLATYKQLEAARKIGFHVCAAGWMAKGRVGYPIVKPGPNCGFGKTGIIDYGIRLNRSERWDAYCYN

For the compound `CC(=O)N[C@H]1[C@H](O[C@H]2[C@H](O)[C@@H](O)[C@H](O[C@H]3[C@H](O)[C@@H](CO)O[C@@H](O[C@H]4[C@H](O)[C@@H](O)[C@H](O[C@@H]([C@H](O)[C@H](O)CO)[C@H](CNc5ccccc5C(=O)O)NC(C)=O)O[C@@H]4C(=O)O)[C@@H]3NC(C)=O)O[C@@H]2C(=O)O)O[C@H](CO)[C@@H](O)[C@@H]1O[C@@H]1O[C@H](C(=O)O)[C@@H](O)[C@H](O)[C@H]1O` [HA6-2AA], on Link_TSG6, the N was found to be 1.03 ± 0.02, the ΔG is -8.50 ± 0.04 kcal/mol, the ΔH was -7.84 ± 0.43 kcal/mol and the “−TΔS” value was -0.66 ± 0.41 kcal/mol. Moreover, on recombinant human TSG-6, the “Substrate for HC transfer” value is “Yes” and the “Activity as substrate for HC transfer (text)” value (shortened to “Activity as substrate”) was “good substrates; also recorded: could become covalently coupled to an HC”.
Turning to `CC(=O)N[C@H]1[C@H](O[C@H]2[C@H](O)[C@@H](O)[C@H](O[C@H]3[C@H](O)[C@@H](CO)O[C@@H](O[C@H]4[C@H](O)[C@@H](O)[C@H](O[C@@H]([C@H](O)[C@H](O)CO)[C@H](CNc5cccc(C(=O)O)c5)NC(C)=O)O[C@@H]4C(=O)O)[C@@H]3NC(C)=O)O[C@@H]2C(=O)O)O[C@H](CO)[C@@H](O)[C@@H]1O[C@@H]1O[C@H](C(=O)O)[C@@H](O)[C@H](O)[C@H]1O` [HA6-3AA], on Link_TSG6, the N was 1.05 ± 0.02, the ΔG was -8.61 ± 0.10 kcal/mol, the ΔH was -6.30 ± 0.11 kcal/mol and the “−TΔS” value is -2.21 ± 0.83 kcal/mol. In addition, at recombinant human TSG-6, the “Substrate for HC transfer” value is listed as “No” and the “Activity as substrate” value is recorded as “No HC•HA6 complexes were observed”. Moreover, the “Activity as substrate” value on recombinant human TSG-6 (listed as HA63AA) is on record as “could become covalently coupled to an HC”.
`CC(=O)N[C@H]1[C@H](O[C@H]2[C@H](O)[C@@H](O)[C@H](O[C@H]3[C@H](O)[C@@H](CO)O[C@@H](O[C@H]4[C@H](O)[C@@H](O)[C@H](O[C@@H]([C@H](O)[C@H](O)CO)[C@H](CNc5ccc(C(=O)O)cc5)NC(C)=O)O[C@@H]4C(=O)O)[C@@H]3NC(C)=O)O[C@@H]2C(=O)O)O[C@H](CO)[C@@H](O)[C@@H]1O[C@@H]1O[C@H](C(=O)O)[C@@H](O)[C@H](O)[C@H]1O` [HA6-4AA]: on Link_TSG6, the N is listed as 1.02 ± 0.05, the ΔG is -8.40 ± 0.08 kcal/mol, the ΔH was -7.57 ± 0.26 kcal/mol and the “−TΔS” value is -0.83 ± 0.34 kcal/mol. On recombinant human TSG-6, the “Substrate for HC transfer” value is given as “Yes” and the “Activity as substrate” value is reported as “weak substrates”.
Consider `CC(=O)N[C@H]1[C@H](O[C@H]2[C@H](O)[C@@H](O)[C@H](O[C@H]3[C@H](O)[C@@H](CO)O[C@@H](O[C@H]4[C@H](O)[C@@H](O)[C@H](O[C@H]5[C@H](O)[C@@H](CO)O[C@@H](O[C@H]6[C@H](O)[C@@H](O)[C@H](O[C@@H]([C@H](O)[C@H](O)CO)[C@H](CNc7ccccc7C(=O)O)NC(C)=O)O[C@@H]6C(=O)O)[C@@H]5NC(C)=O)O[C@@H]4C(=O)O)[C@@H]3NC(C)=O)O[C@@H]2C(=O)O)O[C@H](CO)[C@@H](O)[C@@H]1O[C@@H]1O[C@H](C(=O)O)[C@@H](O)[C@H](O)[C@H]1O` [HA8-2AA], for which, on Link_TSG6, the N stood at 1.06 ± 0.03, the ΔG is -7.83 ± 0.13 kcal/mol, the ΔH is -12.55 ± 0.59 kcal/mol and the “−TΔS” value amounted to 4.69 ± 0.73 kcal/mol. At recombinant human TSG-6, the “Substrate for HC transfer” value was “Yes” and the “Activity as substrate” value is “retained full activity as substrates”.

The record behind these values is article PMC11460632, “Chemical modification of hyaluronan oligosaccharides differentially modulates hyaluronan–hyaladherin interactions” (The Journal of Biological Chemistry, 2024).
